Reference: the kinase profiling compilation of Christmann-Franck et al. (2016)

Tests used:
Assay in all cases: KINOMEscan competition binding
Settings in all cases: compound 1.0 µM
ACVR2A (human) = ACVR2A (human) (UniProt P27037)
ADCK3 (human) = ADCK3 (human) (UniProt Q8NI60)
AURKA (human) = AURKA (human) (UniProt O14965)
AURKC (human) = AURKC (human) (UniProt Q9UQB9)
BRSK2 (human) = BRSK2 (human) (UniProt Q8IWQ3)
CAMK1G (human) = CAMK1G (human) (UniProt Q96NX5)
CASK (human) = CASK (human) (UniProt O14936)
CDK11B (human) = CDK11B (human) (UniProt P21127)
CDK9 (human) = CDK9 (human) (UniProt P50750)
CDKL5 (human) = CDKL5 (human) (UniProt O76039)
CHEK1 (human) = CHEK1 (human) (UniProt O14757)
CLK4 (human) = CLK4 (human) (UniProt Q9HAZ1)
CPK1 (P.falciparum) = tested on: CPK1 (P.falciparum)
CSNK1A1 (human) = CSNK1A1 (human) (UniProt P48729)
DAPK3 (human) = DAPK3 (human) (UniProt O43293)
DAPK3 (human), sequence (O43293 whole entry, looked up): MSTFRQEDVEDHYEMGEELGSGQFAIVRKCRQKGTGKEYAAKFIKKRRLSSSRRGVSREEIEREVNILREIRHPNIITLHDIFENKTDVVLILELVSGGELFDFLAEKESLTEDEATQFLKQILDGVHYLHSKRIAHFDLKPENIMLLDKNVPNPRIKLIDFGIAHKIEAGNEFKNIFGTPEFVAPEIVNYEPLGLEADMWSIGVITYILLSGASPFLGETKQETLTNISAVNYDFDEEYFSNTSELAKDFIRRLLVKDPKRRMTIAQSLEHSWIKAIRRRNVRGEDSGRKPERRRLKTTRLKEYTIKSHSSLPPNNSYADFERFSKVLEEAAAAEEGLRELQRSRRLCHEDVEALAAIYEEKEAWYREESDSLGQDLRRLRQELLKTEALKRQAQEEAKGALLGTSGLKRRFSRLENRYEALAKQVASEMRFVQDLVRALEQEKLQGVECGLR

DCLK1 (human) = DCLK1 (human) (UniProt O15075)
DYRK1A (human) = DYRK1A (human) (UniProt Q13627)
[1] = tested on: EGFR (human), P00533 [G719C]
EPHA2 (human) = EPHA2 (human) (UniProt P29317)
EPHA4 (human) = EPHA4 (human) (UniProt P54764)
[2] = tested on: FLT3 (human), P36888 [R834Q]
[3] = tested on: LRRK2 (human), Q5S007 [G2019S]
MAP2K3 (human) = MAP2K3 (human) (UniProt P46734)
MAP2K3 (human), sequence (P46734 whole entry, looked up): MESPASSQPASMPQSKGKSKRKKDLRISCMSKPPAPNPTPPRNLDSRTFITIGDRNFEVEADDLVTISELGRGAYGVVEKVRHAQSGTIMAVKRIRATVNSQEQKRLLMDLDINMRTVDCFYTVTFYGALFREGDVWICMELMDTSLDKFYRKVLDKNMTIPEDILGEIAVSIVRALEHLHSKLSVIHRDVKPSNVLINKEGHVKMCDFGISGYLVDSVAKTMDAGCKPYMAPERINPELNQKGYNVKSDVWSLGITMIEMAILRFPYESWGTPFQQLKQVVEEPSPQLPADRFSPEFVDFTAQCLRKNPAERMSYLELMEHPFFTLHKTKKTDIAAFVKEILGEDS

MAP3K13 (human) = MAP3K13 (human) (UniProt O43283)
MAP4K5 (human) = MAP4K5 (human) (UniProt Q9Y4K4)
MAPK1 (human) = MAPK1 (human) (UniProt P28482)
MAPK6 (human) = MAPK6 (human) (UniProt Q16659)
MAPK6 (human), sequence (Q16659 whole entry, looked up): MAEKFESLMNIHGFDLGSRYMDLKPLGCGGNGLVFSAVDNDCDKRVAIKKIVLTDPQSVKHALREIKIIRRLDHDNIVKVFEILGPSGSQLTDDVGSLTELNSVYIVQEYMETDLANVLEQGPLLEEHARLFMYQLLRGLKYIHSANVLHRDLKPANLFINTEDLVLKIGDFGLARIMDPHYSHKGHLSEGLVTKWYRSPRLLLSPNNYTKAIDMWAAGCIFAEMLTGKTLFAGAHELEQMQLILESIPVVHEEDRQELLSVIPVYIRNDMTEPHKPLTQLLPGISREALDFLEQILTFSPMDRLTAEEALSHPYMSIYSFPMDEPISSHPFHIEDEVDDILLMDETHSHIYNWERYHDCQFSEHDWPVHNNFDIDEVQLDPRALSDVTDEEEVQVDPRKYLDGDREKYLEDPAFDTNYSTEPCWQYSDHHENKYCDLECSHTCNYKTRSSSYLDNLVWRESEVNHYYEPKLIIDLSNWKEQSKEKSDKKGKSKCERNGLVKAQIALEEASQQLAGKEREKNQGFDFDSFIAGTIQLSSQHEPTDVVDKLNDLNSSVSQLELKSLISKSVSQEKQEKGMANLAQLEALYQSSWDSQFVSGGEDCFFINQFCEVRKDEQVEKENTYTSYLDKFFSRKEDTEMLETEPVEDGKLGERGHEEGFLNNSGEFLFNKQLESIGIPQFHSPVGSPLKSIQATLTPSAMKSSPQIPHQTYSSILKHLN

MAPK7 (human) = MAPK7 (human) (UniProt Q13164)
MAPK7 (human), sequence (Q13164 whole entry, looked up): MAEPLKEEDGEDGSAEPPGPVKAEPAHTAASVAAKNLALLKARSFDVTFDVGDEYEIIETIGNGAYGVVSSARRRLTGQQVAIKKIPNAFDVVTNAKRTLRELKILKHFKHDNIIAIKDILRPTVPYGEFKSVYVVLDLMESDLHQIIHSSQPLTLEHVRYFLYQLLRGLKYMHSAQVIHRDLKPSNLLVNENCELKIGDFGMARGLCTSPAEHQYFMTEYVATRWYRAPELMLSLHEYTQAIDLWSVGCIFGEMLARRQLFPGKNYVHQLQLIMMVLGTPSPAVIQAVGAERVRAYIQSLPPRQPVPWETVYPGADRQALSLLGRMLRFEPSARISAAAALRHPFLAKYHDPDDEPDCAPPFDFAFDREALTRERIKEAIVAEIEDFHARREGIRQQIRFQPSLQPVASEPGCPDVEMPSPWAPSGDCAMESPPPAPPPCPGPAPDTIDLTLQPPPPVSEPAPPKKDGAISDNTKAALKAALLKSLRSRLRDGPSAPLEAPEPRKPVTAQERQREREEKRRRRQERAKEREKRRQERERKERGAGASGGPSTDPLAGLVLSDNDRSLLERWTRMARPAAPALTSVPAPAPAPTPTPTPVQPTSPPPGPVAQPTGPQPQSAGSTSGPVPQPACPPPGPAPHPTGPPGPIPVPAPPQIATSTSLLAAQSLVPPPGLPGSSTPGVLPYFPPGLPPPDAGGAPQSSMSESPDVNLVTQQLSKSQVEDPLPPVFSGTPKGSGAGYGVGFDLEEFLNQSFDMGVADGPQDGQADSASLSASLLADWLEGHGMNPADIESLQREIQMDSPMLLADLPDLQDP

MARK3 (human) = MARK3 (human) (UniProt P27448)
MKNK1 (human) = MKNK1 (human) (UniProt Q9BUB5)
PAK4 (human) = PAK4 (human) (UniProt O96013)
PAK4 (human), sequence (O96013 whole entry, looked up): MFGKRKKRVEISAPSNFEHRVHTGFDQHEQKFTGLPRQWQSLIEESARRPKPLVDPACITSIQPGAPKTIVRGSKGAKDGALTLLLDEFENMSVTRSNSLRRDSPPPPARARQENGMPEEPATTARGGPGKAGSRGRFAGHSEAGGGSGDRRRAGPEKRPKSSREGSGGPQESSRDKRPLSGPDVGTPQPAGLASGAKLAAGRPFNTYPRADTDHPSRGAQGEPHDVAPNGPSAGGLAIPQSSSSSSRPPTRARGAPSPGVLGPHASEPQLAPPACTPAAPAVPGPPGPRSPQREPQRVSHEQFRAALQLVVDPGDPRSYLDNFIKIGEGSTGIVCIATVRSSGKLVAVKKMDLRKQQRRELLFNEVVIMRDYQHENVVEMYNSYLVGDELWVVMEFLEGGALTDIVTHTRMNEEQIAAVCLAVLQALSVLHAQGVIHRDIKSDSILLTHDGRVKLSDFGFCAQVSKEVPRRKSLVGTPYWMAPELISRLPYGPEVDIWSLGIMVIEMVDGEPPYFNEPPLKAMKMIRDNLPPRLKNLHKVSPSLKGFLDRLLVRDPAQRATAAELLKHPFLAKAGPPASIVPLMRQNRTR

PAK6 (human) = PAK6 (human) (UniProt Q9NQU5)
PDPK1 (human) = PDPK1 (human) (UniProt O15530)
[4] = tested on: PIK3CA (human), P42336 [Q546K]
PIM3 (human) = PIM3 (human) (UniProt Q86V86)
PIP5K1A (human) = PIP5K1A (human) (UniProt Q99755)
[5] = tested on: RET (human), P07949 [M918T]
RET (human), P07949 [M918T], sequence (P07949 whole entry M918T, looked up): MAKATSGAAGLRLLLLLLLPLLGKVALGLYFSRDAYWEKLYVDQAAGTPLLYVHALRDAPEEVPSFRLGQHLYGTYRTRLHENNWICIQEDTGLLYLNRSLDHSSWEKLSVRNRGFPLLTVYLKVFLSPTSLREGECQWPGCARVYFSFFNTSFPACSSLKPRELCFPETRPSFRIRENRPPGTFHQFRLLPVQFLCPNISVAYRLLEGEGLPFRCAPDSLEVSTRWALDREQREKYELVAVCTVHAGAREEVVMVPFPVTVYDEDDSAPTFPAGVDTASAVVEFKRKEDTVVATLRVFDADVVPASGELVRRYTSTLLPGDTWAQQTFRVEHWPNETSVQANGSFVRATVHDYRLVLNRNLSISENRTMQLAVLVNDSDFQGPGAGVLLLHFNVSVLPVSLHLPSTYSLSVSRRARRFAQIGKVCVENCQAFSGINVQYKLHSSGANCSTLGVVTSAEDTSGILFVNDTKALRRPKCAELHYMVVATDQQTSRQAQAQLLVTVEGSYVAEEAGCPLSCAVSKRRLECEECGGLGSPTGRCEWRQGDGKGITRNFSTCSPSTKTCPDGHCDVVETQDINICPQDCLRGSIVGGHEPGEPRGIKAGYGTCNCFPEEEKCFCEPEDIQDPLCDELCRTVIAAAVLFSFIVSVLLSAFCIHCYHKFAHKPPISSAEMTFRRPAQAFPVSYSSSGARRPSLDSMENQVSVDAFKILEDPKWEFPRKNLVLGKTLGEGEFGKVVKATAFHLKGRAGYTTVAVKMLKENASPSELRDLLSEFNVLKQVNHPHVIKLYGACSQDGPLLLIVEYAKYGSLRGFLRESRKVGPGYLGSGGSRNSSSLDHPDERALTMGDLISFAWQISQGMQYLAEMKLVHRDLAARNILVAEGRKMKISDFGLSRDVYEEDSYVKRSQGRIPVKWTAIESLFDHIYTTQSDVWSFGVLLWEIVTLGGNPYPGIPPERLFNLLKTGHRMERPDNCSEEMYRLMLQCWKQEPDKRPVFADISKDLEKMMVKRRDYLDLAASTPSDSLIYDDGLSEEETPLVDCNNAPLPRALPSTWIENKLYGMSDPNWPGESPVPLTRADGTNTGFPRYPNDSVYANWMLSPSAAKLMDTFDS

[6] = tested on: RET (human), P07949 [V804M]
RPS6KA2 KD1 (human) = RPS6KA2 KD1 (human) (UniProt Q15349)
SGK110 (human) = SGK110 (human) (UniProt P0C264)
TBK1 (human) = TBK1 (human) (UniProt Q9UHD2)
TGFBR2 (human) = TGFBR2 (human) (UniProt P37173)
TGFBR2 (human), sequence (P37173 whole entry, looked up): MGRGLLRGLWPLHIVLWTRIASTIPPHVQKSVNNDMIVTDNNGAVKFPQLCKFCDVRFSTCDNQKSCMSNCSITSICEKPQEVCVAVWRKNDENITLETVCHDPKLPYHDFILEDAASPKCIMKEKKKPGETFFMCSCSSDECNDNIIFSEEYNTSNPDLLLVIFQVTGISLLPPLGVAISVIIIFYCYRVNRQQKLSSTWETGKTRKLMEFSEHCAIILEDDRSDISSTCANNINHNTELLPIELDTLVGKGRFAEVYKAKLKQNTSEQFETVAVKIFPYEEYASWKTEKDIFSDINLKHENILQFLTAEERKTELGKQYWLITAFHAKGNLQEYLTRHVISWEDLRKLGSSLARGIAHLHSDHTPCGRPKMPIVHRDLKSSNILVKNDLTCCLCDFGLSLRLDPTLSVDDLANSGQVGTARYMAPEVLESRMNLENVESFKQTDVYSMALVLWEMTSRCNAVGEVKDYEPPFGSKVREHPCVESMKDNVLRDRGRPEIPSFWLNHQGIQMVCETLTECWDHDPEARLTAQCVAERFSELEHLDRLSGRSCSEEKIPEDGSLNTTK

TLK1 (human) = TLK1 (human) (UniProt Q9UKI8)

AURKA (human), sequence (O14965 whole entry, looked up): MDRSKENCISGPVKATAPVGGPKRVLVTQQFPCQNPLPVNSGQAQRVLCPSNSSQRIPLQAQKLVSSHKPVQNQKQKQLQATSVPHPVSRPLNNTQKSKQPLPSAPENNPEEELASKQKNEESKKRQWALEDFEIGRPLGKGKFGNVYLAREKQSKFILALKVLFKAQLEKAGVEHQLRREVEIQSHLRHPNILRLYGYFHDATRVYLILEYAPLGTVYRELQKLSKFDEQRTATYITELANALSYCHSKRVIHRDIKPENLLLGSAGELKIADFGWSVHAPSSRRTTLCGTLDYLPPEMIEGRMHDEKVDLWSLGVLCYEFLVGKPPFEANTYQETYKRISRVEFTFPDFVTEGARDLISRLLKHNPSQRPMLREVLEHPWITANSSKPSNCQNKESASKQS

With `COCCNCCCn1c(C(=O)CF)c(-c2ccc(C)cc2)c2c(N)ncnc21` the kinase still bound, per cent of control (ACVR2A (human)) was 100%, the kinase still bound, per cent of control (ADCK3 (human)) was 100% and the kinase still bound, per cent of control (AURKA (human)) was 92%. For the same compound, the kinase still bound, per cent of control (AURKC (human)) was 89%, the kinase still bound, per cent of control (BRSK2 (human)) was 100% and the kinase still bound, per cent of control (CAMK1G (human)) was 97%. For the same compound, the kinase still bound, per cent of control (CASK (human)) was 62%, the kinase still bound, per cent of control (CDK11B (human)) was 100% and the kinase still bound, per cent of control (CDK9 (human)) was 100%. It also gave a kinase still bound, per cent of control (CDKL5 (human)) of 100%, a kinase still bound, per cent of control (CHEK1 (human)) of 100% and a kinase still bound, per cent of control (CLK4 (human)) of 91%. It also gave a kinase still bound, per cent of control (CPK1 (P.falciparum)) of 89%, a kinase still bound, per cent of control (CSNK1A1 (human)) of 100% and a kinase still bound, per cent of control (DAPK3 (human)) of 97%. The kinase still bound, per cent of control (DCLK1 (human)) was 100%, the kinase still bound, per cent of control (DYRK1A (human)) was 100% and the kinase still bound, per cent of control [1] was 84%. For the same compound, the kinase still bound, per cent of control (EPHA2 (human)) was 100%, the kinase still bound, per cent of control (EPHA4 (human)) was 96% and the kinase still bound, per cent of control [2] was 96%. It also gave a kinase still bound, per cent of control [3] of 100%, a kinase still bound, per cent of control (MAP2K3 (human)) of 97% and a kinase still bound, per cent of control (MAP3K13 (human)) of 92%. For the same compound, the kinase still bound, per cent of control (MAP4K5 (human)) was 86%, the kinase still bound, per cent of control (MAPK1 (human)) was 100% and the kinase still bound, per cent of control (MAPK6 (human)) was 100%. For the same compound, the kinase still bound, per cent of control (MAPK7 (human)) was 100%, the kinase still bound, per cent of control (MARK3 (human)) was 100% and the kinase still bound, per cent of control (MKNK1 (human)) was 100%. The kinase still bound, per cent of control (PAK4 (human)) was 92%, the kinase still bound, per cent of control (PAK6 (human)) was 93% and the kinase still bound, per cent of control (PDPK1 (human)) was 100%. The kinase still bound, per cent of control [4] was 100%, the kinase still bound, per cent of control (PIM3 (human)) was 100% and the kinase still bound, per cent of control (PIP5K1A (human)) was 100%. For the same compound, the kinase still bound, per cent of control [5] was 100%, the kinase still bound, per cent of control [6] was 100% and the kinase still bound, per cent of control (RPS6KA2 KD1 (human)) was 83%. The kinase still bound, per cent of control (SGK110 (human)) was 100%, the kinase still bound, per cent of control (TBK1 (human)) was 100% and the kinase still bound, per cent of control (TGFBR2 (human)) was 100%. The kinase still bound, per cent of control (TLK1 (human)) was 78%.
